How the values were obtained:
D3 receptor = D3 receptor (Homo sapiens (Human), UniProt P35462); test: Radioligand binding ([3H]-spiperone) to cloned D3 receptor expressed in HEK-293 EBNA cells; details: HEK293 EBNA membranes, 0.5 nM [3H]-spiperone
Method: (§1) HEK293 EBNA cells were transiently transfected with expression plasmids encoding for the human D2 or D3 or for the human 5-HT2A receptor, respectively. The cells were harvested 48 h post-transfection, washed three times with cold PBS and stored at −80° C. prior to use. The pellet was suspended in cold 50 mM Tris-HCl buffer containing 10 mM EDTA (pH 7.4) and was homogenized with a Polytron (Kinematica AG, Basel, Switzerland) for 20-30 sec at 12.000 rpm. After centrifugation at 48.000×g for 30 min at 4° C., the pellet was resuspended in cold 10 mM Tris-HCl buffer containing 0.1 mM EDTA (pH 7.4), homogenized, and centrifuged as above. This pellet was further resuspended in a smaller volume of ice cold 10 mM Tris-HCl buffer containing 0.1 mM EDTA (pH 7.4) and homogenized with a Polytron for 20-30 sec at 12.000 rpm. The protein content of this homogenate was determined with the Bio-Rad (Bradford) Protein Assay (Biorad Laboratories GmbH, München, Germany) according to the instructions of the manufacturer using gamma globulin as the standard. This homogenate was stored at −80° C. in aliquots and thawed immediately prior to use.
(§2) Radioligand Binding Assay
(§3) Aliquots of membrane preparations were thawed at RT, resupended in assay buffer (D2, D3: 50 mM Tris-HCl, 120 mM NaCl, 5 mM MgCl2, 1 mM EDTA, 5 mM KCl, 1.5 mM CaCl2, pH=7.4; 5-HT2A: 50 mM Tris-HCl, 10 mM MgCl2, 1 mM EGTA, pH=7.4), homogenized with a Polytron for 20-30 sec at 12.000 rpm and adjusted to a final concentration of approximately 7.5 μg protein/well (D2, D3) and 15 μg protein/well (5-HT2A), respectively.
The binding affinity (Ki) of the compounds was determined using radioligand binding. […] At the end of the incubation, the reaction mixtures were filtered on to unifilter 96-well white microplates with bonded GF/C filters (Packard BioScience, Zürich, Switzerland; preincubated for 1 h in 0.1% polyethylenimine (PEI) in assay buffer) with a Filtermate 196 harvester (Packard BioScience) and washed 3 times with cold assay buffer. The nonspecific binding was determined with equally composed reaction mixtures in the presence of 10 μM unlabelled spiperone. Per well 45 μl of Microscint 40 (Perkin Elmer, Schwerzenbach, Switzerland) was added, plates for sealed, shaken for 20 min and counted for 3 min on a Topcount Microplate Scintillation Counter (Canberra Packard SA, Zürich, Switzerland) with quenching correction.
(§4) The CPM value for each duplicate of a concentration of competing compound was averaged (y1), then the % specific binding was calculated according to the equation (((y1−non-specific)/(total binding−non-specific))×100). Graphs were plotted with the % specific binding using XLfit, a curve fitting program that iteratively plots the data using Levenberg-Marquardt algorithm. The single site competition analysis equation used was y=A+((B−A)/(1+((x/C)D))), where y is the % specific binding, A is the minimum y, B is the maximum y, C is the IC50, x is the log 10 of the concentration of the competing compound and D is the slope of the curve (the Hill Coefficient). […] The affinity constant (Ki) was calculated using the Cheng-Prusoff equation Ki=(IC50/1+([L]/Kd), where [L] is the concentration of radioligand and Kd is the dissociation constant of the radioligand at the receptor as determined by the saturation isotherm.

D2 receptor = D2 receptor (Homo sapiens (Human), UniProt P14416); test: Radioligand binding ([3H]-spiperone) to cloned D2 receptor expressed in HEK-293 EBNA cells; details: HEK293 EBNA membranes, 0.7 nM [3H]-spiperone
Chain of D2 receptor (P14416 whole entry): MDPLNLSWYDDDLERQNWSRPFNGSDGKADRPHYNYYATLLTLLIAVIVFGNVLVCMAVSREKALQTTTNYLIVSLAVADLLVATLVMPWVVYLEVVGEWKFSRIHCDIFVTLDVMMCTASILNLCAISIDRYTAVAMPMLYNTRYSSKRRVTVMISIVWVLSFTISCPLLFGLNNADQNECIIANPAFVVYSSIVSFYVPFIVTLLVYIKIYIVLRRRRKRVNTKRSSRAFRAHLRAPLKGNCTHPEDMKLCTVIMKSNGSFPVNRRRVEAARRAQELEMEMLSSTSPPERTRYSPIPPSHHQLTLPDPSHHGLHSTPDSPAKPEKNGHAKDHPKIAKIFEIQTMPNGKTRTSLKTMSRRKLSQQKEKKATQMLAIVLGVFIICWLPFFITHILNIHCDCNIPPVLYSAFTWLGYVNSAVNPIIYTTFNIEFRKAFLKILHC
Method: as §1, §2, §3
The binding affinity (Ki) of the compounds was determined using radioligand binding. […] The nonspecific binding was determined with equally composed reaction mixtures in the presence of 10 μM unlabelled spiperone. Per well 45 μl of Microscint 40 (Perkin Elmer, Schwerzenbach, Switzerland) was added, plates for sealed, shaken for 20 min and counted for 3 min on a Topcount Microplate Scintillation Counter (Canberra Packard SA, Zürich, Switzerland) with quenching correction.
as §4

Chain of D3 receptor (P35462 whole entry): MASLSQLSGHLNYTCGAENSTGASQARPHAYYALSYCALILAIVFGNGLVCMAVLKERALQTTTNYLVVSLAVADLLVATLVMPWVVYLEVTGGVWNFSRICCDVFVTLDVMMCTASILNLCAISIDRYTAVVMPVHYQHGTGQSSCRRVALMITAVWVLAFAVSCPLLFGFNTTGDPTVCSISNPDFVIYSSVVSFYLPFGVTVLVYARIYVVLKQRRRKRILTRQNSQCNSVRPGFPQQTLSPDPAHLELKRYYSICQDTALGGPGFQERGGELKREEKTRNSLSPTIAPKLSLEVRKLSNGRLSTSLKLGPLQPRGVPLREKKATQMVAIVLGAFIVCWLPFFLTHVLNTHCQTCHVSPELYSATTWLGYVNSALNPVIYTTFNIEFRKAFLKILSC

O=C(CC1CCOCC1)N[C@H]1CC[C@H](CCN2CCN(c3cccc4c3OCO4)CC2)CC1 [Example 53, N-trans-{4-[2-(4-Benzo[1,3]dioxol-4-yl-piperazin-1-yl)-ethyl]-cyclohexyl}-2-(tetrahydro-pyran-4-yl)-acetamide]
Ki (D3 receptor): 2.09 nM
Ki (D2 receptor): 139 nM

O=C(CO)N[C@H]1CC[C@H](CCN2CCN(c3cccc4c3OCO4)CC2)CC1 [Example 10, Trans-N-{4-[2-(4-Benzo[1,3]dioxol-4-yl-piperazin-1-yl)-ethyl]-cyclohexyl}-2-hydroxy-acetamide]
Ki (D3 receptor): 1.69 nM
Ki (D2 receptor): 184 nM

CO[C@H]1CC[C@H](CC(=O)N[C@H]2CC[C@H](CCN3CCN(c4cccc5c4OCO5)CC3)CC2)CC1 [Example 56, Trans-N-{4-[2-(4-Benzo[1,3]dioxol-4-yl-piperazin-1-yl)-ethyl]-cyclohexyl}-2-(4-methoxy-cyclohexyl)-acetamide]
Ki (D3 receptor): 3.37 nM

CCC(=O)N[C@H]1CC[C@H](CCN2CCN(c3cccc4c3OCO4)CC2)CC1 [Example 7, Trans-N-{4-[2-(4-Benzo[1,3]dioxol-4-yl-piperazin-1-yl)-ethyl]-cyclohexyl}-propionamide]
Ki (D3 receptor): 1.28 nM
Ki (D2 receptor): 74.5 nM

COC(=O)N[C@H]1CC[C@H](CCN2CCN(c3cccc4c3OCO4)CC2)CC1 [Example 12, Trans-{4-[2-(4-Benzo[1,3]dioxol-4-yl-piperazin-1-yl)-ethyl]-cyclohexyl}-carbamic acid methyl ester]
Ki (D3 receptor): 1.29 nM
Ki (D2 receptor): 68.5 nM

CC(C)C(=O)N[C@H]1CC[C@H](CCN2CCN(c3cccc4c3OCO4)CC2)CC1 [Example 17, Trans-N-{4-[2-(4-Benzo[1,3]dioxol-4-yl-piperazin-1-yl)-ethyl]-cyclohexyl}-isobutyramide]
Ki (D3 receptor): 1.81 nM
Ki (D2 receptor): 137 nM

N#Cc1ccc(C(=O)N[C@H]2CC[C@H](CCN3CCN(c4cccc5c4OCO5)CC3)CC2)cc1 [Example 59, Trans-N-{4-[2-(4-Benzo[1,3]dioxol-4-yl-piperazin-1-yl)-ethyl]-cyclohexyl}-4-cyano-benzamide]
Ki (D3 receptor): 3.55 nM
Ki (D2 receptor): 101 nM

O=C(N[C@H]1CC[C@H](CCN2CCN(c3cccc4c3OCO4)CC2)CC1)c1cccnc1 [Example 48, Trans-N-{4-[2-(4-Benzo[1,3]dioxol-4-yl-piperazin-1-yl)-ethyl]-cyclohexyl}-nicotinamide]
Ki (D3 receptor): 1.79 nM
Ki (D2 receptor): 88.2 nM

O=C(Cc1ccc2c(c1)OCO2)N[C@H]1CC[C@H](CCN2CCN(c3cccc4c3OCO4)CC2)CC1 [Example 51, 2-Benzo[1,3]dioxol-5-yl-trans-N-{4-[2-(4-benzo[1,3]dioxol-4-yl-piperazin-1-yl)-ethyl]-cyclohexyl}-acetamide]
Ki (D3 receptor): 2.11 nM
Ki (D2 receptor): 681 nM

O=C(CC1(O)CCCCC1)N[C@H]1CC[C@H](CCN2CCN(c3cccc4c3OCO4)CC2)CC1 [Example 15, Trans-N-{4-[2-(4-Benzo[1,3]dioxol-4-yl-piperazin-1-yl)-ethyl]-cyclohexyl}-2-(1-hydroxy-cyclohexyl)-acetamide]
Ki (D3 receptor): 3.48 nM
Ki (D2 receptor): 160 nM

O=C(CC1CC1)N[C@H]1CC[C@H](CCN2CCN(c3cccc4c3OCO4)CC2)CC1 [Example 8, Trans-N-{4-[2-(4-Benzo[1,3]dioxol-4-yl-piperazin-1-yl)-ethyl]-cyclohexyl}-2-cyclopropyl-acetamide]
Ki (D3 receptor): 1.23 nM
Ki (D2 receptor): 142 nM

O=C(CC1CCCO1)N[C@H]1CC[C@H](CCN2CCN(c3cccc4c3OCO4)CC2)CC1 (stereo partly drawn) [Example 6, Trans-N-{4-[2-(4-Benzo[1,3]dioxol-4-yl-piperazin-1-yl)-ethyl]-cyclohexyl}-2-(tetrahydro-furan-2-yl)-acetamide]
Ki (D3 receptor): 3.1 nM
Ki (D2 receptor): 189 nM

O=C(CC1(O)CCC1)N[C@H]1CC[C@H](CCN2CCN(c3cccc4c3OCO4)CC2)CC1 [Example 28, Trans-N-{4-[2-(4-Benzo[1,3]dioxol-4-yl-piperazin-1-yl)-ethyl]-cyclohexyl}-2-(1-hydroxy-cyclobutyl)-acetamide]
Ki (D3 receptor): 1.4 nM
Ki (D2 receptor): 94.6 nM

[2H]C1([2H])Oc2cccc(N3CCN(CC[C@H]4CC[C@H](NC(=O)[C@@H](C)OC)CC4)CC3)c2O1 [Example 82, (R)—N-trans{4-[2-(4-Benzo(2,2-D2)-[1,3]dioxol-4-yl-piperazin-1-yl)-ethyl]-cyclohexyl}-2-methoxypropanamide]
Ki (D3 receptor): 5.73 nM
Ki (D2 receptor): 148 nM

O=C(N[C@H]1CC[C@H](CCN2CCN(c3cccc4c3OCO4)CC2)CC1)c1ccc(F)cc1 [Example 46, Trans-N-{4-[2-(4-Benzo[1,3]dioxol-4-yl-piperazin-1-yl)-ethyl]-cyclohexyl}-4-fluoro-benzamide]
Ki (D3 receptor): 3.79 nM
Ki (D2 receptor): 82.5 nM

CC(C)(O)C(=O)N[C@H]1CC[C@H](CCN2CCN(c3cccc4c3OCO4)CC2)CC1 [Example 24, Trans-N-{4-[2-(4-Benzo[1,3]dioxol-4-yl-piperazin-1-yl)-ethyl]-cyclohexyl}-2-hydroxy-2-methyl-propionamide]
Ki (D3 receptor): 8.8 nM
Ki (D2 receptor): 181 nM

COC1(C(=O)N[C@H]2CC[C@H](CCN3CCN(c4cccc5c4OCO5)CC3)CC2)CCCCC1 [Example 41, 1-Methoxy-cyclohexanecarboxylic acid-Trans-N-{4-[2-(4-benzo[1,3]dioxol-4-yl-piperazin-1-yl)-ethyl]-cyclohexyl}-amide]
Ki (D3 receptor): 12.5 nM
Ki (D2 receptor): 251 nM

COC(C)C(=O)N[C@H]1CC[C@H](CCN2CCN(c3cccc4c3OCO4)CC2)CC1 (stereo in doubt) [Example 26, Trans(R)—N-{4-[2-(4-Benzo[1,3]dioxol-4-yl-piperazin-1-yl)-ethyl]-cyclohexyl}-2-methoxy-propionamide]
Ki (D3 receptor): 4.9 nM
Ki (D2 receptor): 150 nM

O=C(N[C@H]1CC[C@H](CCN2CCN(c3cccc4c3OCO4)CC2)CC1)C1CCCO1 (stereo partly drawn) [Example 44, Tetrahydro-furan-2-carboxylic acid-trans-N-{4-[2-(4-benzo[1,3]dioxol-4-yl-piperazin-1-yl)-ethyl]-cyclohexyl}-amide]
Ki (D2 receptor): 117 nM

O=C(C[C@H]1CCCCO1)N[C@H]1CC[C@H](CCN2CCN(c3cccc4c3OCO4)CC2)CC1 (single isomer, unassigned) [Example 31, Trans-N-{4-[2-(4-Benzo[1,3]dioxol-4-yl-piperazin-1-yl)-ethyl]-cyclohexyl}-2-(R) or (S)-tetrahydro-pyran-2-yl-acetamide]
Ki (D2 receptor): 310 nM

O=C(C[C@@H]1CCCCO1)N[C@H]1CC[C@H](CCN2CCN(c3cccc4c3OCO4)CC2)CC1 (single isomer, unassigned) [Example 30, Trans-N-{4-[2-(4-Benzo[1,3]dioxol-4-yl-piperazin-1-yl)-ethyl]-cyclohexyl}-2-(S) or (R)-tetrahydro-pyran-2-yl-acetamide]
Ki (D2 receptor): 220 nM

O=C(N[C@H]1CC[C@H](CCN2CCN(c3cccc4c3OCO4)CC2)CC1)C1(O)CCC1 [Example 35, 1-Hydroxy-cyclobutanecarboxylic acid-trans-N-{4-[2-(4-benzo[1,3]dioxol-4-yl-piperazin-1-yl)-ethyl]-cyclohexyl}-amide]
Ki (D2 receptor): 84.9 nM

Cn1cnc(S(=O)(=O)N[C@H]2CC[C@H](CCN3CCN(c4cccc5c4OCO5)CC3)CC2)c1 [Example 69, 1-Methyl-1H-imidazole-4-sulfonic acid-trans-N-{4-[2-(4-benzo[1,3]dioxol-4-yl-piperazin-1-yl)-ethyl]-cyclohexyl}-amide]
Ki (D3 receptor): 2.25 nM

O=S(=O)(N[C@H]1CC[C@H](CCN2CCN(c3cccc4c3OCO4)CC2)CC1)c1ccccc1 [Example 67, N-trans-{4-[2-(4-Benzo[1,3]dioxol-4-yl-piperazin-1-yl)-ethyl]-cyclohexyl}-benzenesulfonamide]
Ki (D3 receptor): 2.88 nM
